According to publication PMC6018403 (Frontiers in Pharmacology, 2018):
Like-named read-outs stand apart in the source and are kept apart here.

Assay: Multi-component pharmacokinetic study of GQD, GQD-GC and single herb extracts in rats (plasma, LC/MS/MS)
Assay type: in vivo, Sprague-Dawley rats
Description: Male Sprague-Dawley rats (220–250 g) were used for PK study, and the details were described in Supplemental Data. All procedures were in accordance with the National Institutes of Health Guide for the Care and Use of Laboratory Animals.
For PK study of GQD and its component herbs, rats were randomly divided into six groups (n = 10 for each group) before oral administration.
All blood samples were immediately centrifuged at 6,000 rpm (4°C) for 20 min to obtain plasma. The plasma samples were stored at −80°C.
A Finnigan TSQ Quantum triple quadrupole mass spectrometer was connected to a Surveyor HPLC via ESI interface (ThermoFisher). High purity nitrogen was used as the sheath and auxiliary gas; Ultra-high purity argon was used as the collision gas (1.5 mTorr). Q1 and Q3 quadrupoles were set at unit resolution. […] The column temperature was 40°C. The mobile phase consisted of acetonitrile containing 2% (v/v) methanol (A) and water containing 0.1% (v/v) formic acid (B). […] An aliquot of 5 μL was injected for analysis. UV spectra were obtained by scanning from 200 to 400 nm. The mass spectrometer was operated in the (+)-ESI mode. The optimized parameters were as follows: sheath gas (N2), 50 arb; auxiliary gas (N2), 5 arb; spray voltage, 4.0 kV; capillary temperature, 330°C; collision energy, see Table S1. Analytes were detected in the selected reaction monitoring (SRM) mode. Data were processed by Xcalibur 2.0.7 software (ThermoFisher).
LC/MS/MS calibration and quantitation data were processed with Xcalibur 2.0.7 software (ThermoFisher). The maximal plasma concentrations (Cmax) and their time of occurrence (Tmax) were obtained directly from the measured data. Other pharmacokinetic parameters were calculated by non-compartment or compartment models using WinNonlin® software (v6.1, Pharsight). Unless otherwise stated, results were expressed as the mean ± SD. Statistical significance in differences of the means was determined by Student's t–test, with a significance level of P < 0.05.
Herbal materials and extracts.
The four component herbs, Puerariae Lobatae Radix (Ge-Gen, GG), Scutellariae Radix (Huang-Qin, HQ), Coptidis Rhizoma (Huang-Lian, HL), and Glycyrrhizae Radix et Rhizoma Praeparata cum Melle (Gan-Cao, GC) were purchased from Tianheng Pharmacy. GQD was prepared by decocting the four component herbs […]
pre-extraction of Ge-Gen using 200 mL of water for 0.5 h. The decoctions were combined, filtered, and concentrated in vacuum at 50 °C. GQD-GC was prepared using the same procedure, except that Gan-Cao was removed from the formula. Final concentration of the GQD-GC extract was equivalent to 1.0 g of the crude drugs per mL. For single herb extracts, the herbs were decocted in 8-fold volume of water for […]
Final concentrations of the extracts were 1.0 g/mL for Ge-Gen, and 0.5 g/mL for Huang-Qin, Huang-Lian and […]
For pharmacokinetic study, Male Sprague-Dawley rats (220-250 g) were obtained from the Laboratory Animal Center of Peking University Health Science Center. The […]
The rats had free access to tap water and soy-free custom diet (Ke’ao Xieli Co.). All procedures were in accordance with the National Institutes of Health Guide for the Care and Use of Laboratory Animals […]
Experimental details for the PK study
1. Preparation of internal standard solution, calibration standard solutions, and quality control solutions […]
internal standard solution. Reference standard compounds were dissolved in the internal standard solution to prepare individual stock solutions (1.0 mg/mL). These […]
each compound. The standard solution was then serially diluted to obtain calibration […]
Quality control stock solutions were prepared at three concentration levels as high QC (HQC), middle QC (MQC), and low QC (LQC), based on linear ranges of the analytes.
2.1. Sample preparation for pharmacokinetic study
The calibration standard and quality control solutions for pharmacokinetic study were […]

[1] = male, Sprague-Dawley, rat, in vivo, po
[2] = male, Sprague-Dawley, rat, in vivo, po, 3.54 g/kg
[3] = male, Sprague-Dawley, rat, in vivo, po, 3.54 g/kg, AUClast
[4] = male, Sprague-Dawley, rat, in vivo, po, 16.5 g/kg
[5] = male, Sprague-Dawley, rat, in vivo, po, 16.5 g/kg, AUClast
[6] = male, Sprague-Dawley, rat, in vivo, po, 18.9 g/kg
[7] = male, Sprague-Dawley, rat, in vivo, po, 18.9 g/kg, AUClast
[8] = male, Sprague-Dawley, rat, plasma, po, 18.9 g/kg, GQD group: rats, oral GQD extract 18.9 g/kg, plasma, read-out: AUClast
[9] = male, Sprague-Dawley, rat, GQD group: rats, oral GQD extract 18.9 g/kg, plasma, read-out: Cmax
[10] = male, Sprague-Dawley, rat, GQD group: rats, oral GQD extract 18.9 g/kg, plasma, read-out: T1/2 (converted)
[11] = male, Sprague-Dawley, rat, GQD group: rats, oral GQD extract 18.9 g/kg, plasma, read-out: Tmax
[12] = male, Sprague-Dawley, rat, plasma, po, 9.45 g/kg, GG (Ge-Gen) group: rats, oral extract 9.45 g/kg, plasma, read-out: AUClast
[13] = male, Sprague-Dawley, rat, plasma, po, 16.5 g/kg, GQD-GC group (GQD without Gan-Cao): rats, oral 16.5 g/kg, plasma, read-out: AUClast
[14] = male, Sprague-Dawley, rat, GG (Ge-Gen) group: rats, oral extract 9.45 g/kg, plasma, read-out: Cmax
[15] = male, Sprague-Dawley, rat, GG (Ge-Gen) group: rats, oral extract 9.45 g/kg, plasma, read-out: T1/2 (converted)
[16] = male, Sprague-Dawley, rat, GG (Ge-Gen) group: rats, oral extract 9.45 g/kg, plasma, read-out: Tmax
[17] = male, Sprague-Dawley, rat, GQD-GC group (GQD without Gan-Cao): rats, oral 16.5 g/kg, plasma, read-out: Cmax
[18] = male, Sprague-Dawley, rat, GQD-GC group (GQD without Gan-Cao): rats, oral 16.5 g/kg, plasma, read-out: T1/2 (converted)
[19] = male, Sprague-Dawley, rat, GQD-GC group (GQD without Gan-Cao): rats, oral 16.5 g/kg, plasma, read-out: Tmax

Row | Compound | increase of AUClast in GQD group compared with the Huang-Lian group [1] [%] | Cmax [2] [ng/mL] | Tmax [2] [h] | half-life [2] [h] | AUC(0-t) [3] [ng·h/mL] | Cmax [4] [ng/mL] | Tmax [4] [h] | half-life [4] [h] | AUC(0-t) [5] [ng·h/mL] | Cmax [6] [ng/mL] | Tmax [6] [h] | half-life [6] [h] | AUC(0-t) [7] [ng·h/mL] | AUC(0-t) [8] [ng·h/mL] | Cmax [9] [ng/mL] | half-life [10] [h] | Tmax [11] [h] | AUC(0-t) [12] [ng·h/mL] | AUC(0-t) [13] [ng·h/mL] | Cmax [14] [ng/mL] | also measured
1 | O=c1cc(-c2ccccc2)oc2cc(O)c(O)c(O)c12 [Compound 12, baicalein] | – | – | – | – | – | – | – | – | – | – | – | – | – | 108 ± 47 | 11.1 ± 0.66 | 7.57 ± 0.21 | 0.42 ± 0.03 | – | – | – | AUC(0-t) (male, Sprague-Dawley, rat, plasma, po, 3.54 g/kg, HQ (Huang-Qin) group: rats, oral extract 3.54 g/kg, plasma, read-out: AUClast): 19.5 ± 11.2 ng·h/mL; Cmax (male, Sprague-Dawley, rat, HQ (Huang-Qin) group: rats, oral extract 3.54 g/kg, plasma, read-out: Cmax): 3.46 ± 0.34 ng/mL; half-life (male, Sprague-Dawley, rat, HQ (Huang-Qin) group: rats, oral extract 3.54 g/kg, plasma, read-out: T1/2 (converted)): 5.99 ± 1.23 h; Tmax (male, Sprague-Dawley, rat, HQ (Huang-Qin) group: rats, oral extract 3.54 g/kg, plasma, read-out: Tmax): 1 ± 0.64 h
2 | O=c1c(-c2ccc(O)cc2)coc2c([C@@H]3O[C@H](CO)[C@@H](O)[C@H](O)[C@H]3O)c(O)ccc12 [Compound 7, puerarin] | – | – | – | – | – | – | – | – | – | – | – | – | – | 8610 ± 766 | 577 ± 56.3 | 5.58 ± 2.9 | 1.2 ± 1.49 | 5020 ± 536 | 5610 ± 279 | 488 ± 23.9 | AUC(0-t) (male, Sprague-Dawley, rat, plasma, po, 9.45 g/kg, Ge-Gen group: rats, oral 9.45 g/kg, plasma, read-out: AUClast): 5020 ± 536 ng·h/mL; half-life [15]: 6.36 ± 4.39 h; Tmax [16]: 0.59 ± 0.01 h; Cmax [17]: 416 ± 232 ng/mL; half-life [18]: 8.29 ± 2.22 h; Tmax [19]: 0.52 ± 0.07 h; bioavailability in the GQD group compared with the Ge-Gen group (rats, oral): higher
3 | O=c1c(-c2ccc(O)cc2)coc2c(C3OC(COC4OCC(O)(CO)C4O)C(O)C(O)C3O)c(O)cc(O)c12 (stereo not shown) [Compound 6, genistein 8-C-apiofuranosyl(1,6)glucoside] | – | – | – | – | – | – | – | – | – | – | – | – | – | 98.8 ± 24.8 | 11.3 ± 3.32 | 6.77 ± 3.44 | 8.39 ± 0.23 | 168 ± 33.6 | 96.3 ± 105 | 11.3 ± 1.8 | half-life [15]: 5.57 ± 3.48 h; Tmax [16]: 0.73 ± 0.3 h; Cmax [17]: 12.1 ± 7.87 ng/mL; half-life [18]: 2.15 ± 1.7 h; Tmax [19]: 1.56 ± 1.53 h

Now from value to molecule, other results behind:

Row | increase of AUClast in GQD group compared with the Huang-Lian group [1] [%] | Cmax [2] [ng/mL] | Tmax [2] [h] | half-life [2] [h] | AUC(0-t) [3] [ng·h/mL] | Cmax [4] [ng/mL] | Tmax [4] [h] | half-life [4] [h] | AUC(0-t) [5] [ng·h/mL] | Cmax [6] [ng/mL] | Tmax [6] [h] | half-life [6] [h] | AUC(0-t) [7] [ng·h/mL] | Compound | AUC(0-t) [8] [ng·h/mL] | Cmax [9] [ng/mL] | half-life [10] [h] | Tmax [11] [h] | AUC(0-t) [12] [ng·h/mL] | AUC(0-t) [13] [ng·h/mL] | Cmax [14] [ng/mL] | also measured
4 | 32.7 | 5.96 ± 1.35 | 0.25 ± 1.25 | 3.25 ± 2.43 | 51.5 ± 27.8 | 4.75 ± 10.2 | 0.26 ± 0.15 | 3.03 ± 2.36 | 43.4 ± 17 | 17.1 ± 2.98 | 0.17 ± 0.03 | 1.62 ± 1.82 | 68.3 ± 39.2 | COc1cc2c(cc1OC)-c1cc3ccc(OC)c(OC)c3c[n+]1CC2 [Compound 25, palmatine] | – | – | – | – | – | – | – | –
5 | 49.1 | 5.33 ± 1.35 | 0.68 ± 0.65 | 3.83 ± 1.34 | 73.2 ± 21.2 | 8.39 ± 1.3 | 0.69 ± 0.76 | 3.87 ± 0.27 | 167 ± 24.4 | 6.56 ± 4.03 | 0.74 ± 0.32 | 5.2 ± 1.37 | > 100 | c1c2c(cc3c1OCO3)-c1cc3ccc4c(c3c[n+]1CC2)OCO4 [Compound 21, coptisine] | – | – | – | – | – | – | – | AUClast [6]: 109.2 ± 73.23 ng·h/mL
